Measurements from patent publication US8247211B2, “Glycopeptide antibiotics” (American Cyanamid Company, priority 2001, dated 2012).
≈ marks a conversion by molar mass, not a printed value.

How the values were obtained:
[1] = test system: Staphylococcus aureus-SMITH (GC 4543); experiment: Acute lethal infection in mice (ED50); type: in vivo; conditions: female CD-1 mice, intraperitoneal challenge, intravenous dose 30 min. after infection, 7 day survival ratios
How it was run: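 Female CD-1 mice challenged intraperitoneally with a bacterial dose lethal to untreated controls within 24-48 h. Compound given intravenously in saline or 5% dextrose 30 min post-infection, five mice per dose; ED50 from 7-day survival pooled over 3 tests.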

Escherichia coli = experiment: In vitro antibacterial evaluation: minimum inhibitory concentration (MIC), broth dilution method; type: cell-based; conditions: 5×10^5 CFU/mL, 18 hours at 35° C.
How it was run: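 Following NCCLS approved standard M7-A2, compounds are serially diluted from 64 to 0.06 μg/mL in Muller-Hinton II […] and inoculated at 5×10^5 CFU/mL; the MIC is the minimum concentration at which growth is inhibited.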

Staphylococcus sp. = experiment: as above; type: cell-based; conditions: for MIC Staphylococcus aureus-SMITH (GC 4543): strain GC 4543; for MIC Staphylococcus haemolyticus (GC 4546): strain GC 4546; for MIC Coagulase Negative Staphylococcus (GC 4547): strain GC 4547; for MIC Coagulase Negative Staphylococcus (GC 4548): strain GC 4548; for MIC Coagulase Negative Staphylococcus (GC 4549): strain GC 4549; for MIC Coagulase Negative Staphylococcus (GC 4551): strain GC 4551; for MIC Coagulase Negative Staphylococcus (GC 6257): strain GC 6257
How it was run: (§1)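 Susceptibility determined by NCCLS-recommended broth dilution (M7-A2), Muller-Hinton II […]. Concentration span 64-0.06 μg/mL, inoculum 5×10^5 CFU/mL. Isolates include strains resistant to methicillin, penicillin and/or vancomycin.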

Streptococcus sp. = experiment: as above; type: cell-based; conditions: broth dilution, 5×10^5 CFU/mL, 18 hours at 35° C.
How it was run: as §1

Enterococcus sp. = experiment: as above; type: cell-based; conditions: broth dilution, 5×10^5 CFU/mL, 18 hours at 35° C.
How it was run: as §1

[2] = broth dilution, 18 hours at 35° C.

SMILES: COc1ccc(CC2OCC3OC(OC4C(CO)OC(Oc5ccc(CC6NC(=O)C(C(C)c7ccccc7)NC(=O)CNC(=O)C(CO)NC(=O)C(C(O)C7CNC(=N)N7C7OC(CO)C(O)C(O)C7O)NC(=O)C(C(O)C7CNC(=N)N7)NC6=O)cc5)C(O)C4O)C(O)C(O)C3O2)cc1 (stereo not shown) [Example 103]
- median effective dose (ED50), Staphylococcus aureus-SMITH (GC 4543) [1]: 0.28 mg/kg
- MIC Escherichia coli (ATCC 25922) (Escherichia coli): 64 µg/mL (≈ 44.8 µM)
- MIC Escherichia coli (GC 4559) (Escherichia coli): 64 µg/mL (≈ 44.8 µM)
- MIC Escherichia coli (GC 4560) (Escherichia coli): 1 µg/mL (≈ 0.701 µM)
- MIC Staphylococcus aureus (ATCC 29213) (Staphylococcus sp.; strain ATCC 29213): 2 µg/mL (≈ 1.4 µM)
- MIC Staphylococcus aureus (GC 1131) (Staphylococcus sp.; strain GC 1131): 2 µg/mL (≈ 1.4 µM)
- MIC Staphylococcus aureus (GC 3051) (Staphylococcus sp.; strain GC 3051): 1 µg/mL (≈ 0.701 µM)
- MIC Staphylococcus aureus (GC 3053) (Staphylococcus sp.; strain GC 3053): 2 µg/mL (≈ 1.4 µM)
- MIC Staphylococcus aureus (GC 4541) (Staphylococcus sp.; strain GC 4541): 2 µg/mL (≈ 1.4 µM)
- MIC Staphylococcus aureus (GC 4542) (Staphylococcus sp.; strain GC 4542): 2 µg/mL (≈ 1.4 µM)
- MIC Staphylococcus aureus-SMITH (GC 4543) (Staphylococcus sp.; 18 hours at 35° C.): 1 µg/mL (≈ 0.701 µM)
- MIC Staphylococcus aureus-SMITH (GC 4543) (Staphylococcus sp.; [2]): 1 µg/mL (≈ 0.701 µM)
- MIC Staphylococcus aureus (GC 4544) (Staphylococcus sp.; strain GC 4544): 2 µg/mL (≈ 1.4 µM)
- MIC Staphylococcus aureus (GC 4545) (Staphylococcus sp.; strain GC 4545): 1 µg/mL (≈ 0.701 µM)
- MIC Staphylococcus haemolyticus (GC 4546) (Staphylococcus sp.): 1 µg/mL (≈ 0.701 µM)
- MIC Staphylococcus haemolyticus (GC 4546) (Staphylococcus sp.; [2]): 1 µg/mL (≈ 0.701 µM)
- MIC Coagulase Negative Staphylococcus (GC 4547) (Staphylococcus sp.): 2 µg/mL (≈ 1.4 µM)
- MIC Coagulase Negative Staphylococcus (GC 4547) (Staphylococcus sp.; [2]): 2 µg/mL (≈ 1.4 µM)
- MIC Coagulase Negative Staphylococcus (GC 4548) (Staphylococcus sp.): 1 µg/mL (≈ 0.701 µM)
- MIC Coagulase Negative Staphylococcus (GC 4548) (Staphylococcus sp.; [2]): 1 µg/mL (≈ 0.701 µM)
- MIC Coagulase Negative Staphylococcus (GC 4549) (Staphylococcus sp.): 1 µg/mL (≈ 0.701 µM)
- MIC Coagulase Negative Staphylococcus (GC 4549) (Staphylococcus sp.; [2]): 1 µg/mL (≈ 0.701 µM)
- MIC Coagulase Negative Staphylococcus (GC 4551) (Staphylococcus sp.): 2 µg/mL (≈ 1.4 µM)
- MIC Coagulase Negative Staphylococcus (GC 4551) (Staphylococcus sp.; [2]): 2 µg/mL (≈ 1.4 µM)
- MIC Coagulase Negative Staphylococcus (GC 6257) (Staphylococcus sp.): 1 µg/mL (≈ 0.701 µM)
- MIC Coagulase Negative Staphylococcus (GC 6257) (Staphylococcus sp.; [2]): 1 µg/mL (≈ 0.701 µM)
- MIC Streptococcus agalactiae (GC 4564) (Streptococcus sp.): 0.5 µg/mL (≈ 0.35 µM)
- MIC Streptococcus pneumoniae (GC 1894) (Streptococcus sp.): 0.12 µg/mL (≈ 0.0841 µM)
- MIC Streptococcus pneumoniae (GC 4565) (Streptococcus sp.): 0.12 µg/mL (≈ 0.0841 µM)
- MIC Streptococcus pneumonine (ATCC 6301) (Streptococcus sp.): 0.12 µg/mL (≈ 0.0841 µM)
- MIC Streptococcus pyogenes (GC 4563) (Streptococcus sp.): 0.25 µg/mL (≈ 0.175 µM)
- MIC Enterococccus avium (GC 4558) (Enterococcus sp.): 8 µg/mL (≈ 5.6 µM)
- MIC Enterococccus faecalis (ATCC 29212) (Enterococcus sp.): 4 µg/mL (≈ 2.8 µM)
- MIC Enterococccus faecalis (GC 2691) (Enterococcus sp.): 8 µg/mL (≈ 5.6 µM)
- MIC Enterococccus faecalis (GC 3059) (Enterococcus sp.): 8 µg/mL (≈ 5.6 µM)
- MIC Enterococccus faecalis (GC 4552) (Enterococcus sp.): 8 µg/mL (≈ 5.6 µM)
- MIC Enterococccus faecalis (GC 4553) (Enterococcus sp.): 8 µg/mL (≈ 5.6 µM)
- MIC Enterococccus faecalis (GC 4554) (Enterococcus sp.): 8 µg/mL (≈ 5.6 µM)
- MIC Enterococccus faecalis (GC 6189) (Enterococcus sp.): 4 µg/mL (≈ 2.8 µM)
- MIC Enterococccus faecium (GC 2243) (Enterococcus sp.): 4 µg/mL (≈ 2.8 µM)
- MIC Enterococccus faecium (GC 4556) (Enterococcus sp.): 4 µg/mL (≈ 2.8 µM)
- MIC Enterococccus faecium (GC 4557) (Enterococcus sp.): 2 µg/mL (≈ 1.4 µM)
- MIC Enterococcus faecalis (GC 2242) (Enterococcus sp.): 4 µg/mL (≈ 2.8 µM)
